“And” between values parts separate entries of the source, which are not always exact repeats. Identical values can stand only once. “Also recorded” adds a separate entry of the source. Like-named read-outs stand apart in the source and are kept apart here. One block for each molecule: values may come before it.
Columns and labels:
[1] = molecular target: α1β2γ2 GABAA receptors (Rattus norvegicus, UniProt P62813+P63138); assay type: cell-based, rat α1, rat β2, murine γ2
[2] = molecular target: α1β2 GABAA receptor (Rattus norvegicus, UniProt P62813+P63138); assay type: cell-based, rat α1, rat β2
α1β2 GABAA receptor, sequence (P62813 28-455): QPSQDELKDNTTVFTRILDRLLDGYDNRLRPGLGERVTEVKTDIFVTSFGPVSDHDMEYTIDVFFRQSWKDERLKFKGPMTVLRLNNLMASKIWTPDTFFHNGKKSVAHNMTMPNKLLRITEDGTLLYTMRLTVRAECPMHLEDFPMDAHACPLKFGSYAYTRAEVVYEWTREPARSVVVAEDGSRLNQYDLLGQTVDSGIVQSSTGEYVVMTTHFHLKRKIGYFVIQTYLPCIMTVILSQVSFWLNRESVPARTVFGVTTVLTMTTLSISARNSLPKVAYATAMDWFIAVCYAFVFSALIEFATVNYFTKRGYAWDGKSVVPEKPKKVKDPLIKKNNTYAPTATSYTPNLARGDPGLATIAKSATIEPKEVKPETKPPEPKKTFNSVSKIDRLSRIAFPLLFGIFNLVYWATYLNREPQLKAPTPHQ
α1β2 GABAA receptor, sequence (P63138 25-474 limits assumed): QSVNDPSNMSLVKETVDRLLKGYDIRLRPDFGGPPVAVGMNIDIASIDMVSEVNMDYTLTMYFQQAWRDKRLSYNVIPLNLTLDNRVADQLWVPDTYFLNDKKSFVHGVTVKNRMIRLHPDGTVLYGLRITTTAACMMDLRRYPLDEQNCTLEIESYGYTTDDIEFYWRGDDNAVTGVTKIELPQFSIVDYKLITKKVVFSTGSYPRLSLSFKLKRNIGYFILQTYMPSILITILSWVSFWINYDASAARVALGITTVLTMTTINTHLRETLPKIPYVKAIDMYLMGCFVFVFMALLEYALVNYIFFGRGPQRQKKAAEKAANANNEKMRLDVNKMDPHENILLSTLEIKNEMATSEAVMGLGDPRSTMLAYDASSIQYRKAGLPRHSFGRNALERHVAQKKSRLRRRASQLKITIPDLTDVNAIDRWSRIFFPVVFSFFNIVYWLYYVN

[3] = molecular target: α1β1γ2 GABAA receptors (Rattus norvegicus, UniProt P15431+P62813); assay type: cell-based, rat α1, rat β1, murine γ2
α1β1γ2 GABAA receptors, sequence (P62813 28-455): as the sequence (P62813 28-455) above
α1β1γ2 GABAA receptors, sequence (P15431 26-474): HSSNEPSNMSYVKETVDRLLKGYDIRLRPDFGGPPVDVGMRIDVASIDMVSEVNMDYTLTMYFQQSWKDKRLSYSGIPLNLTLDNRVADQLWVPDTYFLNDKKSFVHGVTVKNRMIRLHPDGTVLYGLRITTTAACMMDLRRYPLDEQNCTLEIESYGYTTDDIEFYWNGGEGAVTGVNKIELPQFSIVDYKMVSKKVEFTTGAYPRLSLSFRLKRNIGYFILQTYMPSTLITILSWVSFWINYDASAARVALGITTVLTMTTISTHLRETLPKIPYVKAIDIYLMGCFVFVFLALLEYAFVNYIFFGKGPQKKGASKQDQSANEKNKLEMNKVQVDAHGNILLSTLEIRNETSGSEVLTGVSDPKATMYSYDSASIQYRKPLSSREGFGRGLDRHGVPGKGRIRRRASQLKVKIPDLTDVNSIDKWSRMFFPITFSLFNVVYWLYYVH
α1β1γ2 GABAA receptors, sequence (P22723 39-474 partner): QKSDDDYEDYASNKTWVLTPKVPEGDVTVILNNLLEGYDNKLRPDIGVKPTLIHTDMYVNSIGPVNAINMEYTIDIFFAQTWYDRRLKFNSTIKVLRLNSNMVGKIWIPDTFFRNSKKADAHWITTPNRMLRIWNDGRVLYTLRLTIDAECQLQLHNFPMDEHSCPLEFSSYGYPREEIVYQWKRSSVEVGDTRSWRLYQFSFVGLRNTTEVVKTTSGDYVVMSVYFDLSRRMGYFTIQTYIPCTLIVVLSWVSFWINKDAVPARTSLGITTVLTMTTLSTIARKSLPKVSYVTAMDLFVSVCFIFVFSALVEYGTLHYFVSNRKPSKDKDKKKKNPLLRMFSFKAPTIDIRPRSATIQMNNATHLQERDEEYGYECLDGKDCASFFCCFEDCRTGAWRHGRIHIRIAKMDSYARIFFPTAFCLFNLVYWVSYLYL

[4] = molecular target: α1β3γ2 GABAA receptors (UniProt P28472+P62813); assay type: cell-based, rat α1, human β3, murine γ2
α1β3γ2 GABAA receptors, sequence (P62813 28-455): as the sequence (P62813 28-455) above
α1β3γ2 GABAA receptors, sequence (P28472 26-473): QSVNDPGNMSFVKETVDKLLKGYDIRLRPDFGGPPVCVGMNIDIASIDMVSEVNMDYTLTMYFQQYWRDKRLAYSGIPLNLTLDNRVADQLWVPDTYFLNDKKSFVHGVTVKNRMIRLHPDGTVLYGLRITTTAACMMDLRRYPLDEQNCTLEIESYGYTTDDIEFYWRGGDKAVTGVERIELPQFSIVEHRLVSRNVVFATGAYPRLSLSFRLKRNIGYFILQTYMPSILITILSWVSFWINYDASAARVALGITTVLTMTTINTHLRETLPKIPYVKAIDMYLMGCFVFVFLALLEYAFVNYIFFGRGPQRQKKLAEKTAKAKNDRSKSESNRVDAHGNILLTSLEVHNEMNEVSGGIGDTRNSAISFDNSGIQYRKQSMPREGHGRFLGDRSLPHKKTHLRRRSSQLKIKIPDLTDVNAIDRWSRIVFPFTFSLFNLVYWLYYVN
α1β3γ2 GABAA receptors, sequence (P22723 39-474 partner): as the sequence (P22723 39-474 partner) above

[5] = molecular target: α1β2(M286W)γ2 GABAA receptors (Rattus norvegicus, UniProt P62813+P63138, M310W); assay: Two-electrode voltage clamp on Xenopus laevis oocytes expressing mutant α1β2; assay type: cell-based, rat α1, rat β2, murine γ2
α1β2(M286W)γ2 GABAA receptors, sequence (P62813 28-455): as the sequence (P62813 28-455) above
α1β2(M286W)γ2 GABAA receptors, sequence (P63138 25-474 M310W limits assumed): as the sequence (P63138 25-474 limits assumed) above, with M286W counted along it
α1β2(M286W)γ2 GABAA receptors, sequence (P22723 39-474 partner): as the sequence (P22723 39-474 partner) above

[6] = molecular target: α1β2(N265M)γ2 GABAA receptors (Rattus norvegicus, UniProt P62813+P63138, N289M); assay: as above; assay type: cell-based, rat α1, rat β2, murine γ2
α1β2(N265M)γ2 GABAA receptors, sequence (P62813 28-455): as the sequence (P62813 28-455) above
α1β2(N265M)γ2 GABAA receptors, sequence (P63138 25-474 N289M limits assumed): as the sequence (P63138 25-474 limits assumed) above, with N265M counted along it
α1β2(N265M)γ2 GABAA receptors, sequence (P22723 39-474 partner): as the sequence (P22723 39-474 partner) above

[7] = cited from earlier work
[8] = tested on: 5HT3A receptor; conditions: cited from earlier work
[9] = molecular target: α1β2γ2 receptors; conditions: read-out: EC50 for potentiation; cited from earlier work

α1β2γ2 GABAA receptors, sequence (P62813 28-455): as the sequence (P62813 28-455) above
α1β2γ2 GABAA receptors, sequence (P63138 25-474 limits assumed): as the sequence (P63138 25-474 limits assumed) above
α1β2γ2 GABAA receptors, sequence (P22723 39-474 partner): as the sequence (P22723 39-474 partner) above

- EC50 ([1]; Modulatory EC50, α1β2γ2, potentiation of current evoked by 3 µM GABA): 6 µM and 6.3 µM
- Concentration at which potentiation of GABA-induced currents starts ([1]; α1β2γ2, 3 µM GABA): 1 µM
- Concentration of maximal potentiation ([1]; α1β2γ2, 3 µM GABA): approximately 30 µM
- Potentiating action of 30 µM glabridin in the presence of flumazenil ([1]; α1β2γ2, 3 µM GABA, 30 µM glabridin, 1 µM flumazenil): not significantly altered
- Fold decrease of GABA EC50 ([1]; α1β2γ2, 30 µM glabridin): 12 fold and 12.3 fold
- Direct activation by 30 µM glabridin ([1]; α1β2γ2, 30 µM glabridin in the absence of GABA, normalized to GABA current): 0.07±0.02
- Fold potentiation by 30 µM glabridin ([1]; α1β2γ2, 30 µM glabridin, 3 µM GABA): 6.20±1.41 fold
- Fold decrease of GABA EC50 ([1]; α1β2γ2, 30 µM glabridin, listed as Glabridin): approximately 12 fold
- Direct activation, share of the maximally evoked current by saturating GABA concentrations ([1]; α1β2γ2, 100 µM glabridin in the absence of GABA, n=4): up to 17±7%
- Direct activation at lower concentrations ([1]; α1β2γ2, glabridin up to 10 µM in the absence of GABA): failed to activate
- Threshold concentration for direct activation ([1]; α1β2γ2, in the absence of GABA): 30 µM
- Maximally induced current evoked by 1 mM GABA ([1]; α1β2γ2, with 30 µM glabridin, p=0.055, n=4): not significantly altered
- EC50 [2]: 9.63 ± 0.7 µM
- Fold decrease of GABA EC50 ([2]; α1β2, 30 µM glabridin): 1.8 fold
- Direct activation by 30 µM glabridin ([2]; α1β2, 30 µM glabridin in the absence of GABA, normalized to GABA current): 0.11±0.05
- Fold potentiation by 30 µM glabridin ([2]; α1β2, 30 µM glabridin, 3 µM GABA): 4.23±0.56 fold
- EC50 [3]: 17.2 ± 2.64 µM
- Fold decrease of GABA EC50 ([3]; α1β1γ2, 30 µM glabridin): 4.4 fold
- Direct activation by 30 µM glabridin ([3]; α1β1γ2, 30 µM glabridin in the absence of GABA, normalized to GABA current): 0.14±0.08
- Fold potentiation by 30 µM glabridin ([3]; α1β1γ2, 30 µM glabridin, 1 µM GABA): 5.07±1.45 fold
- EC50 [4]: 6.83 ± 3.07 µM
- Fold decrease of GABA EC50 ([4]; α1β3γ2, 30 µM glabridin): 6.8 fold
- Direct activation by 30 µM glabridin ([4]; α1β3γ2, 30 µM glabridin in the absence of GABA, normalized to GABA current): 0.08±0.04
- Fold potentiation by 30 µM glabridin ([4]; α1β3γ2, 30 µM glabridin, 10 µM GABA): 2.63±0.42 fold
- Fold decrease of GABA EC50 ([5]; 30 µM glabridin): 0.75 fold
- Fold potentiation by 30 µM glabridin ([5]; 30 µM glabridin, 3 µM GABA): 1.04±0.05 fold
- EC50 [6]: 32.6 ± 1.52 µM
- Fold decrease of GABA EC50 ([6]; α1β2(N265M)γ2, 30 µM glabridin): 3.5 fold
Compound: CC1(C)C=Cc2c(ccc3c2OC[C@@H](c2ccc(O)cc2O)C3)O1 [glabridin]
- Screening for potentiation of GABA-induced currents ([1]; α1β2γ2, components of Glycyrrhiza at 10 µM, n=3–4): the only potentiator of the tested substances
- Modulatory EC50 ([5]; potentiation of current evoked by 3 µM GABA): Neither a potentiating effect nor any shift; also recorded: no potentiation
- Crossing of the blood-brain-barrier [7]: able to cross the blood-brain-barrier
- Action on 5HT3A receptor channel [8]: blocker of the channel

Compound: CC(C)c1cccc(C(C)C)c1O [propofol]
- EC50 [9]: ~2 µM

Reference: article PMC5689168 (Biochemistry and Biophysics Reports, 2016)
